The values that follow come from PMC4057667, “Study on Biopharmaceutics Classification and Oral Bioavailability of a Novel Multikinase Inhibitor NCE for Cancer Therapy” (International Journal of Molecular Sciences, 2014).

Data set [1] can be described thus: Solubility with sodium dodecyl sulfate (SDS) added. Type of data set: physicochemical. As to conditions: aqueous with cosolvent or surfactant or cyclodextrin. How it is done:
Intrinsic dissolution ratio is defined as the dissolution rate of a pure drug substance under the condition of constant surface area, agitation or stirring speed, pH and ionic strength of the dissolution medium. As a rate characterization, IDR data has a good correlation with in vivo drug dissolution rate. […] Three different SDS concentrations were tested. The solubilities of NCE were 54.46 (0.4% SDS), 131.83 (1% SDS) and 255.91 (2% SDS) μg/mL. The volume of the release medium in this experiment was 900 mL, thus the introduction of 1% SDS into the medium was enough to achieve sink condition.
The concentration of NCE in perfusion buffer containing 0.4% SDS was high enough to conduct the following intestinal permeability study. Additionally, according to preliminary experiments, SDS with concentrations higher than 1% would be toxic to rats.

Data set [2] in a line: pKa determination. Type of data set: physicochemical. As to conditions: read-out: pKa of conjugate acid.
Data set [3] can be described thus: 1-octanol/water partition coefficient, shake-flask method. In kind it is physicochemical. Conditions: 37 °C. How it is done:
The partition coefficient (logP value) is related closely to drug’s absorption in vivo. Furthermore, it can help to get a better understanding of drug’s physicochemical properties. The 1-octanol/water partition coefficient of NCE was measured by a shake-flask method. Both the 1-octanol and aqueous buffer solution were saturated before performing the experiments. Solutions of about 3.3 mM NCE were prepared in aqueous 0.1 M HCl (pH = 1.0) solution and PBS buffer (pH = 6.8) solutions. Then, 1 mL of 1-octanol was added to 9 mL of the aqueous NCE solution in glass flasks. The mixtures were then stirred in a mechanical shaker for 6 h (37 °C). Samples were left in water baths and kept at the appropriate temperature (37 °C) for at least 72 h. After that, the concentrations in the aqueous phase and 1-octanol phase were determined by HPLC, respectively. The partition coefficients were calculated by the following equation. All the partitioning experiments were performed in at least triplicate.
(1) P1-octanol/water=lg (C1-octanol/Cwater)
where P1-octanol/water is the partition coefficient value; C1-octanol is the drug’s concentration in 1-octanol phase; Cwater is the drug’s concentration in aqueous solution.

The nature of data set [4]: Stability in perfusion buffers. In kind it is physicochemical. Conditions: for Detected concentration / Rate of change: perfusion buffer. How it is done:
Storage conditions were investigated to guarantee the samples were stable before HPLC analysis. The stability of NCE was evaluated in the perfusion solution (pH 6.5). Four aliquots of the NCE solutions were stored at room temperature for 0, 2, 4 or 6 h, respectively. Another three were stored at 4 °C for 0, 24 or 48 h, respectively. All the samples were centrifuged at a rate of 1.3 × 10^4 rpm for 10 min and then measured by HPLC. The sample concentrations were compared.

Data set [5] is described as follows: Biopharmaceutics Classification System (BCS) classification. As to conditions: IDR below borderline value of 1 mg·min^−1·cm^−2. The source says: Targeted small-molecular inhibitors are promising antitumor candidates compared to the traditional chemotherapy drugs due to their high efficiency and low toxicity. Their common formulations are oral preparations with good compliance. The essential parameters controlling oral drug absorption are the permeability of the drug through the gastrointestinal (GI) membrane and the drug solubility/dissolution in GI milieu. Biopharmaceutics Classification System (BCS) is a modern tool to characterize drug permeability and solubility/dissolution [4, 5]. […] By using BCS system, some drug-drug interactions could be prevented and the in vivo bioavailability testing of the immediate release dosage forms of class I and III drugs could be bypassed. Up till now, there is rare systemic report about specific classification method according to BCS, especially for a novel drug candidate.
According to the Food and Drug Administration (FDA) guidance for biowaiver request of immediate-release solid oral dosage forms, a drug substance is considered as high soluble when the highest dose strength is soluble in ≤250 mL of aqueous media over the pH range of 1.0–7.5 [7]. However, the choice of different dose has a great impact on the dose/solubility ratio and then affects the classification of drugs. […]

In data set [6] the test system is fibroblast growth factor receptor 2 (FGFR2). Also noted: method as in PMID 21691074. As to conditions: at a concentration of 10 μM; cited from earlier work.
Data set [7] relates to platelet-derived growth factor receptor (PDGFR). Also noted: method as in PMID 21691074. As to conditions: at a concentration of 10 μM; cited from earlier work.
Data set [8] deals with VEGF-stimulated human umbilical vein endothelial cells (HUVECs). Also noted: method as in PMID 21691074. Conditions: in vitro; cited from earlier work.

Broadly, the solubility is the concentration that dissolves in the medium under given conditions. The low end stands for a poorly soluble substance, the high end for a readily soluble substance. As a reminder, the pKa is the negative logarithm of the acid dissociation constant. As usually defined, the logP is the decadic logarithm of the partition coefficient of the neutral form, usually between octanol and water.

Consider `CNC(=O)c1cc(Oc2ccc(NC(=O)c3cccc(C(F)(F)F)c3)cc2)ccn1.Cc1ccc(S(=O)(=O)O)cc1.O` [NCE, 2-methylcarbamoyl-4-{4-[3-(trifluoromethyl)benzamido]phenoxy} pyridinium 4-methylbenzenesulfonate monohydrate], for which the solubility turned out to be 54.5 µg/mL in data set [1] (phosphate buffer with 0.4% SDS), 132 µg/mL in data set [1] (phosphate buffer with 1% SDS) and 256 µg/mL in data set [1] (phosphate buffer with 2% SDS). Further, in data set [2], the pKa is 2.86. Further, the logP at 6 h in data set [3] (1-octanol / 0.1 M HCl solution (pH = 1.0)) is 3.1 ± 0.04; in data set [3] (1-octanol/PBS pH 6.8, pH 6.8, 1-octanol / PBS 6.8 solution), 4.2 ± 0.07. For the same molecule, the Detected concentration in data set [4] (4 °C, 24 h) came out at 19.16 µg/mL; in data set [4] (4 °C, 48 h), 18.99 µg/mL; in data set [4] (20 °C, 0 h), 19.83 µg/mL; in data set [4] (20 °C, 2 h) it was 19.66 µg/mL; in data set [4] (20 °C, 4 h) it was 19.49 µg/mL; in data set [4] (20 °C, 6 h), 19.32 µg/mL. The Rate of change was found to be 3.38% in data set [4] (4 °C, 24 h); 4.21% in data set [4] (4 °C, 48 h); 0.86% in data set [4] (20 °C, 2 h); 1.70% in data set [4] (20 °C, 4 h); 2.55% in data set [4] (20 °C, 6 h). In addition, in data set [4] (perfusion buffers, up to 6 h at room temperature or 48 h at 4 °C), the “concentration variation rates, all samples in stability study” value is listed as “less than 5%”. Further, in data set [5], the solubility class result is recorded as “low solubility”. Further, the inhibition rate in data set [6] is 65%; in data set [7] it was 55%. Also, in data set [8], the “inhibition of VEGF-stimulated HUVECs proliferation” value is recorded as “more selective inhibition”.
